What was measured:
Test in all cases: cells
Type in all cases: functional, cell-based, Homo sapiens
[1] = tested on: D-247MG
Description: SANGER: Inhibition of human D-247MG cell growth in a cell viability assay.

[2] = tested on: D283 Med
Description: SANGER: Inhibition of human D-283MED cell growth in a cell viability assay.

[3] = tested on: D-423MG
Description: SANGER: Inhibition of human D-423MG cell growth in a cell viability assay.

[4] = tested on: DMS-114
[5] = tested on: ES1;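 also: growth inhibition of ES1 cells, read out with a cell viability assay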
Description: SANGER: Inhibition of human ES1 cell growth in a cell viability assay.

[6] = tested on: GAMG;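 also: cell growth inhibition measured by a viability assay in the GAMG human cell line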
Description: SANGER: Inhibition of human GAMG cell growth in a cell viability assay.

[7] = tested on: HC-1;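 also: growth inhibition of HC-1 cells measured by a cell viability assay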
Description: SANGER: Inhibition of human HC-1 cell growth in a cell viability assay.

[8] = tested on: HT
Description: SANGER: Inhibition of human HT cell growth in a cell viability assay.

[9] = tested on: HuP-T4;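 also: cell viability assay measuring how much HuP-T4 cell growth is inhibited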
Description: SANGER: Inhibition of human HuP-T4 cell growth in a cell viability assay.

[10] = tested on: IA-LM;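 also: cell viability assay measuring growth inhibition of human IA-LM cells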
Description: SANGER: Inhibition of human IA-LM cell growth in a cell viability assay.

[11] = tested on: LAN-6;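 also: growth inhibition of LAN-6 cells, determined with a cell viability assay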
Description: SANGER: Inhibition of human LAN-6 cell growth in a cell viability assay.

[12] = tested on: MDA-MB-361
[13] = tested on: MKN-7;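 also: growth inhibition of MKN-7 cells, read out with a cell viability assay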
Description: SANGER: Inhibition of human MKN7 cell growth in a cell viability assay.

[14] = tested on: NCI-H1693;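 also: growth inhibition of the human cell line, read out with a cell viability assay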
Description: SANGER: Inhibition of human NCI-H1693 cell growth in a cell viability assay.

[15] = tested on: NCI-H1755;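 also: cell viability readout used to measure growth inhibition of NCI-H1755 cells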
Description: SANGER: Inhibition of human NCI-H1755 cell growth in a cell viability assay.

[16] = tested on: NCI-H2029;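 also: Read-out is a viability assay on the cultured cells, and IC50 is the concentration that suppresses cell growth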
Description: SANGER: Inhibition of human NCI-H2029 cell growth in a cell viability assay.

[17] = tested on: NCI-H2122;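 also: growth inhibition of the cells, read out with a cell viability assay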
Description: SANGER: Inhibition of human NCI-H2122 cell growth in a cell viability assay.

[18] = tested on: NCI-H526;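 also: growth inhibition of the human NCI-H526 cell line, measured by a cell viability assay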
Description: SANGER: Inhibition of human NCI-H526 cell growth in a cell viability assay.

[19] = tested on: NCI-H720;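 also: growth inhibition of human NCI-H720 cells determined by a cell viability assay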
Description: SANGER: Inhibition of human NCI-H720 cell growth in a cell viability assay.

[20] = tested on: NCI-H747;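 also: growth inhibition of human NCI-H747 cells, read out by a cell viability assay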
Description: SANGER: Inhibition of human NCI-H747 cell growth in a cell viability assay.

[21] = tested on: RPMI-8226
Description: SANGER: Inhibition of human RPMI-8226 cell growth in a cell viability assay.

[22] = tested on: S-117
Description: SANGER: Inhibition of human S-117 cell growth in a cell viability assay.

[23] = tested on: SCC-15;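 also: growth inhibition of SCC-15 cells, read out with a cell viability assay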
Description: SANGER: Inhibition of human SCC-15 cell growth in a cell viability assay.

[24] = tested on: SK-PN-DW;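 also: growth inhibition measured with a viability assay on these cells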
Description: SANGER: Inhibition of human SK-PN-DW cell growth in a cell viability assay.

[25] = tested on: SN12C;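 also: growth inhibition of human SN12C cells, measured by a cell viability assay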
Description: SANGER: Inhibition of human SN12C cell growth in a cell viability assay.

[26] = tested on: SW780;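 also: growth inhibition of the cells, read out with a cell viability assay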
Description: SANGER: Inhibition of human SW780 cell growth in a cell viability assay.

[27] = tested on: 23132-87
Description: SANGER: Inhibition of human 23132-87 cell growth in a cell viability assay.

[28] = tested on: 5637
Description: SANGER: Inhibition of human 5637 cell growth in a cell viability assay.

[29] = tested on: 647-V;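 also: growth inhibition of 647-V cells, read out with a cell viability assay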
Description: SANGER: Inhibition of human 647-V cell growth in a cell viability assay.

[30] = tested on: A498;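 also: growth inhibition of human A498 cells, read out with a cell viability assay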
Description: SANGER: Inhibition of human A498 cell growth in a cell viability assay.

[31] = tested on: ABC-1;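 also: growth inhibition of human ABC-1 cells, read out by a cell viability assay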
Description: SANGER: Inhibition of human ABC-1 cell growth in a cell viability assay.

[32] = tested on: AN3-CA;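 also: growth inhibition of human AN3-CA cells measured by a cell viability assay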
Description: SANGER: Inhibition of human AN3-CA cell growth in a cell viability assay.

[33] = tested on: BXPC-3;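 also: growth inhibition of human BxPC-3 cells, read out by a cell viability assay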
Description: SANGER: Inhibition of human BxPC-3 cell growth in a cell viability assay.

[34] = tested on: CAL-85-1;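 also: growth inhibition of human CAL-85-1 cells, read out with a cell viability assay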
Description: SANGER: Inhibition of human CAL-85-1 cell growth in a cell viability assay.

[35] = tested on: TE-10;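 also: growth inhibition of TE-10 cells, measured by a cell viability assay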
Description: SANGER: Inhibition of human TE-10 cell growth in a cell viability assay.

[36] = tested on: TE-11;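 also: growth inhibition of human TE-11 cells, read out by a cell viability assay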
Description: SANGER: Inhibition of human TE-11 cell growth in a cell viability assay.

[37] = tested on: YAPC;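 also: growth inhibition of YAPC cells, measured with a cell viability assay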
Description: SANGER: Inhibition of human YAPC cell growth in a cell viability assay.

With CISPLATIN as the compound, how does the IC50 ([1]; d-247mg) read?
The IC50 was 10.8 µM.

And the IC50 ([2]; d283 med)?
The IC50 was 5.85 µM.

What about the IC50 ([3]; d-423mg) of the same compound?
The IC50 was 13.9 µM.

What about the IC50 ([4]; dms-114) of the same compound?
The IC50 was 19.6 µM.

What about the IC50 ([5]; es1) of the same compound?
The IC50 was 1.02 µM.

And the IC50 ([6]; gamg)?
The IC50 was 289 µM.

And the IC50 ([7]; hc-1)?
The IC50 was 9.5 µM.

What about the IC50 ([8]; ht) of the same compound?
The IC50 was 252 µM.

And the IC50 ([9]; hup-t4)?
Its IC50 is 37.4 µM.

And the IC50 ([10]; ia-lm)?
Its IC50 is 23.1 µM.

What about the IC50 ([11]; lan-6) of the same compound?
Its IC50 is 256 µM.

And the IC50 ([12]; mda-mb-361)?
The IC50 was 18.5 µM.

What about the IC50 ([13]; mkn-7) of the same compound?
Its IC50 is 20 µM.

And the IC50 ([14]; nci-h1693)?
The IC50 was 122 µM.

And the IC50 ([15]; nci-h1755)?
The IC50 was 207 µM.

What about the IC50 ([16]; nci-h2029) of the same compound?
The IC50 was 961 µM.

And the IC50 ([17]; nci-h2122)?
Its IC50 is 15.3 µM.

And the IC50 ([18]; nci-h526)?
Its IC50 is 2.06 µM.

What about the IC50 ([19]; nci-h720) of the same compound?
The IC50 was 136 µM.

And the IC50 ([20]; nci-h747)?
Its IC50 is 16.9 µM.

And the IC50 ([21]; rpmi-8226)?
The IC50 was 192 µM.

And the IC50 ([22]; s-117)?
Its IC50 is 4.53 µM.

And the IC50 ([23]; scc-15)?
The IC50 was 28.9 µM.

What about the IC50 ([24]; sk-pn-dw) of the same compound?
The IC50 was 35 µM.

And the IC50 ([25]; sn12c)?
Its IC50 is 17.1 µM.

What about the IC50 ([26]; sw780) of the same compound?
Its IC50 is 14 µM.

What about the IC50 [27] of the same compound?
Its IC50 is 60.3 µM.

What about the IC50 [28] of the same compound?
The IC50 was 4.52 µM.

What about the IC50 ([29]; 647-v) of the same compound?
The IC50 was 114 µM.

And the IC50 ([30]; a498)?
The IC50 was 19.6 µM.

And the IC50 ([31]; abc-1)?
The IC50 was 3.61 µM.

And the IC50 ([32]; an3-ca)?
Its IC50 is 9.94 µM.

What about the IC50 ([33]; bxpc-3) of the same compound?
The IC50 was 22.3 µM.

And the IC50 ([34]; cal-85-1)?
The IC50 was 732 µM.

And the IC50 ([35]; te-10)?
The IC50 was 158 µM.

And the IC50 ([36]; te-11)?
The IC50 was 16.4 µM.

And the IC50 ([37]; yapc)?
The IC50 was 1160 µM.

Which IC50 ([1]; Homo sapiens, D-247MG) does the source give for Cc1cn(-c2cc(NC(=O)c3ccc(C)c(Nc4nccc(-c5cccnc5)n4)c3)cc(C(F)(F)F)c2)cn1 [NILOTINIB] here?
The IC50 was over 2 µM.

What about the IC50 ([2]; Homo sapiens, D283 Med) of the same compound?
Its IC50 is over 2 µM.

And the IC50 ([3]; Homo sapiens, D-423MG)?
Its IC50 is over 2 µM.

What about the IC50 ([4]; Homo sapiens, DMS-114) of the same compound?
Its IC50 is over 2 µM.

What about the IC50 ([5]; Homo sapiens, ES1) of the same compound?
The IC50 was over 2 µM.

What about the IC50 ([6]; Homo sapiens, GAMG) of the same compound?
The IC50 was over 2 µM.

And the IC50 ([7]; Homo sapiens, HC-1)?
The IC50 was over 2 µM.

And the IC50 ([8]; Homo sapiens, HT)?
The IC50 was over 2 µM.

And the IC50 ([9]; Homo sapiens, HuP-T4)?
The IC50 was over 2 µM.

And the IC50 ([10]; Homo sapiens, IA-LM)?
The IC50 was over 2 µM.

What about the IC50 ([11]; Homo sapiens, LAN-6) of the same compound?
The IC50 was over 2 µM.

And the IC50 ([12]; Homo sapiens, MDA-MB-361)?
The IC50 was over 2 µM.

What about the IC50 ([13]; Homo sapiens, MKN-7) of the same compound?
The IC50 was over 2 µM.

And the IC50 ([14]; Homo sapiens, NCI-H1693)?
Its IC50 is over 2 µM.

What about the IC50 ([15]; Homo sapiens, NCI-H1755) of the same compound?
The IC50 was over 2 µM.

And the IC50 ([16]; Homo sapiens, NCI-H2029)?
Its IC50 is over 2 µM.

And the IC50 ([17]; Homo sapiens, NCI-H2122)?
The IC50 was over 2 µM.

And the IC50 ([18]; Homo sapiens, NCI-H526)?
Its IC50 is over 2 µM.

And the IC50 ([19]; Homo sapiens, NCI-H720)?
Its IC50 is over 2 µM.

And the IC50 ([20]; Homo sapiens, NCI-H747)?
Its IC50 is over 2 µM.

And the IC50 ([21]; Homo sapiens, RPMI-8226)?
The IC50 was over 2 µM.

And the IC50 ([22]; Homo sapiens, S-117)?
The IC50 was over 2 µM.

What about the IC50 ([23]; Homo sapiens, SCC-15) of the same compound?
The IC50 was over 2 µM.

And the IC50 ([24]; Homo sapiens, SK-PN-DW)?
The IC50 was over 2 µM.

And the IC50 ([25]; Homo sapiens, SN12C)?
The IC50 was over 2 µM.

And the IC50 ([26]; Homo sapiens, SW780)?
Its IC50 is over 2 µM.

And the IC50 ([27]; Homo sapiens)?
The IC50 was over 2 µM.

What about the IC50 ([28]; Homo sapiens) of the same compound?
The IC50 was over 2 µM.

What about the IC50 ([29]; Homo sapiens, 647-V) of the same compound?
Its IC50 is over 2 µM.

What about the IC50 ([30]; Homo sapiens, A498) of the same compound?
Its IC50 is over 2 µM.

And the IC50 ([31]; Homo sapiens, ABC-1)?
The IC50 was over 2 µM.

What about the IC50 ([32]; Homo sapiens, AN3-CA) of the same compound?
The IC50 was over 2 µM.

And the IC50 ([33]; Homo sapiens, BXPC-3)?
Its IC50 is over 2 µM.

What about the IC50 ([34]; Homo sapiens, CAL-85-1) of the same compound?
Its IC50 is over 2 µM.

What about the IC50 ([35]; Homo sapiens, TE-10) of the same compound?
The IC50 was over 2 µM.

What about the IC50 ([36]; Homo sapiens, TE-11) of the same compound?
Its IC50 is over 2 µM.

And the IC50 ([37]; Homo sapiens, YAPC)?
Its IC50 is over 2 µM.

For CC(C)CCN1c2nc(Nc3cc(F)c(O)c(F)c3)ncc2N(C)C(=O)C1C (stereo not given), which IC50 ([1]; Homo sapiens, D-247MG) is on record?
Its IC50 is over 5 µM.

What about the IC50 ([2]; Homo sapiens, D283 Med) of the same compound?
The IC50 was 2.24 µM.

What about the IC50 ([3]; Homo sapiens, D-423MG) of the same compound?
The IC50 was 4.81 µM.

What about the IC50 ([4]; Homo sapiens, DMS-114) of the same compound?
The IC50 was 4.81 µM.

And the IC50 ([5]; Homo sapiens, ES1)?
Its IC50 is over 5 µM.

And the IC50 ([6]; Homo sapiens, GAMG)?
Its IC50 is 0.747 µM.

What about the IC50 ([8]; Homo sapiens, HT) of the same compound?
Its IC50 is over 5 µM.

And the IC50 ([9]; Homo sapiens, HuP-T4)?
The IC50 was over 5 µM.

What about the IC50 ([10]; Homo sapiens, IA-LM) of the same compound?
The IC50 was over 5 µM.

And the IC50 ([11]; Homo sapiens, LAN-6)?
The IC50 was over 5 µM.

And the IC50 ([12]; Homo sapiens, MDA-MB-361)?
Its IC50 is over 5 µM.

What about the IC50 ([13]; Homo sapiens, MKN-7) of the same compound?
The IC50 was over 5 µM.

What about the IC50 ([14]; Homo sapiens, NCI-H1693) of the same compound?
The IC50 was over 5 µM.

And the IC50 ([15]; Homo sapiens, NCI-H1755)?
Its IC50 is over 5 µM.

What about the IC50 ([16]; Homo sapiens, NCI-H2029) of the same compound?
Its IC50 is 1.97 µM.

And the IC50 ([17]; Homo sapiens, NCI-H2122)?
The IC50 was over 5 µM.

And the IC50 ([18]; Homo sapiens, NCI-H526)?
The IC50 was over 5 µM.

What about the IC50 ([19]; Homo sapiens, NCI-H720) of the same compound?
Its IC50 is 0.172 µM.

What about the IC50 ([20]; Homo sapiens, NCI-H747) of the same compound?
The IC50 was over 5 µM.

What about the IC50 ([21]; Homo sapiens, RPMI-8226) of the same compound?
The IC50 was over 5 µM.

And the IC50 ([22]; Homo sapiens, S-117)?
Its IC50 is over 5 µM.

And the IC50 ([23]; Homo sapiens, SCC-15)?
The IC50 was over 5 µM.

What about the IC50 ([24]; Homo sapiens, SK-PN-DW) of the same compound?
Its IC50 is over 5 µM.

What about the IC50 ([25]; Homo sapiens, SN12C) of the same compound?
The IC50 was over 5 µM.

What about the IC50 ([26]; Homo sapiens, SW780) of the same compound?
Its IC50 is over 5 µM.

And the IC50 ([27]; Homo sapiens)?
Its IC50 is over 5 µM.

What about the IC50 ([28]; Homo sapiens) of the same compound?
The IC50 was 4.61 µM.

What about the IC50 ([29]; Homo sapiens, 647-V) of the same compound?
The IC50 was over 5 µM.

And the IC50 ([30]; Homo sapiens, A498)?
The IC50 was over 5 µM.

What about the IC50 ([31]; Homo sapiens, ABC-1) of the same compound?
Its IC50 is over 5 µM.

And the IC50 ([32]; Homo sapiens, AN3-CA)?
The IC50 was over 5 µM.

And the IC50 ([33]; Homo sapiens, BXPC-3)?
Its IC50 is over 5 µM.

What about the IC50 ([34]; Homo sapiens, CAL-85-1) of the same compound?
Its IC50 is over 5 µM.

What about the IC50 ([35]; Homo sapiens, TE-10) of the same compound?
The IC50 was over 5 µM.

What about the IC50 ([36]; Homo sapiens, TE-11) of the same compound?
The IC50 was over 5 µM.

And the IC50 ([37]; Homo sapiens, YAPC)?
The IC50 was over 5 µM.

— ChEMBL document CHEMBL1201861, “Genomics of Drug Sensitity in Cancer screening data, Wellcome Trust Sanger Institute”
